Counter-ions that a name gives are not always drawn.
These compounds were tested against T1, human H4 (Homo sapiens, UniProt Q9H3N8) (assay: In vitro histamine receptor cell-based assay (aequorin bioluminescence), H4 antagonism). Conditions: CHO-K1 cells expressing human H4, aequorin and Gα16; histamine at EC80; read-out: H4 Antagonist EC50.
T1 construct: host or cells: CHO-K1
Method: The cell-based assays utilize an aequorin dependent bioluminescence signal. Doubly-transfected, stable CHO-K1 cell lines expressing human H1 or H4, mitochondrion-targeted aequorin, and (H4 only) human G protein Gα16 are obtained from Perkin-Elmer. Cells are maintained in F12 (Ham's) growth medium, containing 10% (vol./vol.) fetal bovine serum, penicillin (100 IU/mL), streptomycin (0.1 mg/mL), zeocin (0.25 mg/mL) and geneticin (0.40 mg/mL). Cell media components are from Invitrogen, Inc. One day prior to assay, the growth medium is replaced with the same, excluding zeocin and geneticin.
For assay preparation, growth medium is aspirated, and cells are rinsed with calcium-free, magnesium-free phosphate-buffered saline, followed by two to three minute incubation in Versene (Invitrogen, Inc.) at 37° C. Assay medium (DMEM:F12 [50:50], phenol-red free, containing 1 mg/mL protease-free bovine serum albumin) is added to collect the released cells, which are then centrifuged. The cell pellet is re-suspended in assay medium, centrifuged once more, and re-suspended in assay medium to a final density of 5×10^6 cells/mL. Coelenterazine-h dye (500 μM in ethanol) is added to a final concentration of 5 μM, and mixed immediately. The conical tube containing the cells is then wrapped with foil to protect the light-sensitive dye. The cells are incubated for four hours further at room temperature (approximately 21° C.) with end-over-end rotation to keep them in suspension.
Just before assay, the dye-loaded cells are diluted to 0.75×10^6 cells/mL (H1 receptor) or 1.5×10^6 cells/mL (H4 receptor) with additional assay medium. Cells are dispensed to 1536 well micro-titer plates at 3 μL/well. To assay receptor antagonism, 60 nl of 100× concentration test compounds in 100% dimethyl sulfoxide (DMSO) are dispensed to the wells, one compound per well, by passive pin transfer, and the plates are incubated for 15 minutes at room temperature. […] The pipette dispenses 3 μL/well of agonist (histamine, at twice the final concentration, where final concentration is a previously determined EC80) in assay medium, with concurrent bioluminescence detection. Agonist activity of test compounds is excluded by separate assays that measure response to test compounds immediately, without added histamine agonist.
CCD image capture on the Lumilux includes a 5 second baseline read prior to agonist addition, and generally a 40 second read per plate after agonist addition. A decrease in bioluminescence signal (measured either as area-under-the-curve, or maximum signal amplitude minus minimum signal amplitude) correlates with receptor antagonism in a dose dependent manner. The negative control is DMSO lacking any test compound. For antagonist assays, the positive controls are diphenhydramine (2-Diphenylmethoxy-N,N-dimethylethylamine, 10 μM final concentration, H1 receptor) or JNJ7777120 (1-[(5-Chloro-1H-indol-2-yl)carbonyl]-4-methyl-piperazine, 10 μM final concentration, H4 receptor). Efficacy is measured as a percentage of positive control activity.

| Structure (SMILES) | EC50 |
| --- | --- |
| CN1CCN(c2nc3ccc(C(F)(F)F)c(F)c3n3nnnc23)CC1 [Example 171, 9-Fluoro-4-(4-methylpiperazin-1-yl)-8-(trifluoromethyl)tetrazolo[1,5-a]quinoxaline] | < 10 µM |
| Fc1cc2c(cc1Cl)nc(N1CCNCC1)c1nnnn12 [Example 202, 7-chloro-8-fluoro-4-(piperazin-1-yl)tetrazolo[1,5-a]quinoxaline] | < 10 µM |
| CN1CCN(c2nc3cc(Cl)c(F)cc3n3nnnc23)CC1 [Example 203, 7-chloro-8-fluoro-4-(4-methylpiperazin-1-yl)tetrazolo[1,5-a]quinoxaline] | < 10 µM |
| CN1CCN(c2nc3ccc(Br)cc3n3nnnc23)CC1 [Example 204, 8-bromo-4-(4-methylpiperazin-1-yl)tetrazolo[1,5-a]quinoxaline] | < 10 µM |
| Fc1cc(C(F)(F)F)cc2c1nc(N1CCNCC1)c1nnnn12 [Example 206, 6-fluoro-4-(piperazin-1-yl)-8-(trifluoromethyl)tetrazolo[1,5-a]quinoxaline hydrochloride] | < 10 µM |
| CN1CCN(c2nc3c(F)cc(C(F)(F)F)cc3n3nnnc23)CC1 [Example 207, 6-fluoro-4-(4-methylpiperazin-1-yl)-8-(trifluoromethyl)tetrazolo[1,5-a]quinoxaline hydrochloride] | < 10 µM |
| CN1CCN(c2nc3c(F)cc(Br)cc3n3cnnc23)CC1 [Example 208, 8-bromo-6-fluoro-4-(4-methylpiperazin-1-yl)-[1,2,4]triazolo[4,3-a]quinoxaline] | < 10 µM |
| Fc1cc(Br)cc2c1nc(N1CCNCC1)c1nncn12 [Example 209, 8-bromo-6-fluoro-4-(piperazin-1-yl)-[1,2,4]triazolo[4,3-a]quinoxaline] | < 10 µM |
| CN1CCN(c2nc3c(F)cc(Br)cc3n3nnnc23)CC1 [Example 210, 8-bromo-6-fluoro-4-(4-methylpiperazin-1-yl)tetrazolo[1,5-a]quinoxaline] | < 10 µM |
| Fc1cc2nc(N3CCNCC3)c3nnnn3c2cc1Br [Example 211, 8-bromo-7-fluoro-4-(piperazin-1-yl)tetrazolo[1,5-a]quinoxaline] | < 10 µM |
| CN1CCN(c2nc3cc(F)c(Br)cc3n3nnnc23)CC1 [Example 212, 8-bromo-7-fluoro-4-(4-methylpiperazin-1-yl)tetrazolo[1,5-a]quinoxaline] | < 10 µM |
| Clc1ccc2nc(N3CCN4CCCC4C3)c3nnnn3c2c1 (centres unmarked) [Example 213, 8-chloro-4-(hexahydropyrrolo[1,2-a]pyrazin-2(1H)-yl)tetrazolo[1,5-a]quinoxaline] | < 10 µM |
| CN1CCN(c2nc3cc(Cl)ccc3c3conc23)CC1 [Example 224, 7-chloro-4-(4-methylpiperazin-1-yl)isoxazolo[3,4-c]quinoline] | < 10 µM |
| CN1CCN(c2nc3cc(F)c(F)cc3c3conc23)CC1 [Example 226, 7,8-difluoro-4-(4-methylpiperazin-1-yl)isoxazolo[3,4-c]quinoline] | < 10 µM |
| Clc1ccc2nc(N3CCN4CCCC4C3)c3nocc3c2c1 (centres unmarked) [Example 230, 8-chloro-4-(hexahydropyrrolo[1,2-a]pyrazin-2(1H)-yl)isoxazolo[3,4-c]quinoline] | < 10 µM |
| Cc1nc2c(N3CCN(C)CC3)nc3cc(F)c(Br)cc3n2n1 [Example 237, 8-bromo-7-fluoro-2-methyl-4-(4-methylpiperazin-1-yl)-[1,2,4]triazolo[1,5-a]quinoxaline] | < 10 µM |
| Cc1nc2c(N3CCNCC3)nc3cc(F)c(Br)cc3n2n1 [Example 238, 8-bromo-7-fluoro-2-methyl-4-(piperazin-1-yl)-[1,2,4]triazolo[1,5-a]quinoxaline] | < 10 µM |
| Cc1nc2c(N3CCN(C)CC3)nc3cc(F)c(C)cc3n2n1 [Example 239, 7-fluoro-2,8-dimethyl-4-(4-methylpiperazin-1-yl)-[1,2,4]triazolo[1,5-a]quinoxaline] | < 10 µM |
| Cc1nc2c(N3CCNCC3)nc3cc(F)c(C)cc3n2n1 [Example 240, 7-fluoro-2,8-dimethyl-4-(piperazin-1-yl)-[1,2,4]triazolo[1,5-a]quinoxaline] | < 10 µM |
| Cc1nc2c(N3CCN(C)CC3)nc3ccc(Br)cc3n2n1 [Example 241, 8-bromo-2-methyl-4-(4-methylpiperazin-1-yl)-[1,2,4]triazolo[1,5-a]quinoxaline] | < 10 µM |
| CN1CCN(c2nc3ccc(Cl)cc3n3ncnc23)CC1 [Example 243, 8-chloro-4-(4-methylpiperazin-1-yl)-[1,2,4]triazolo[1,5-a]quinoxaline] | < 10 µM |
| CCOC(=O)c1nc2c(N3CCN(C)CC3)nc3ccc(Cl)cc3n2n1 [Example 244, Ethyl 8-chloro-4-(4-methylpiperazin-1-yl)-[1,2,4]triazolo[1,5-a]quinoxaline-2-carboxylate] | > 10 µM |
| Cc1nc2c3cc(Cl)cc(F)c3nc(N3CCN(C)CC3)n2n1 [Example 246, 9-chloro-7-fluoro-2-methyl-5-(4-methylpiperazin-1-yl)-[1,2,4]triazolo[1,5-c]quinazoline] | < 10 µM |

More lines, now with the values ahead:

| EC50 | Structure (SMILES) |
| --- | --- |
| < 10 µM | Brc1ccc2nc(N3CCNCC3)c3nnnn3c2c1 [Example 205, 8-bromo-4-(piperazin-1-yOtetrazolo[1,5-a]quinoxaline] |
| > 10 µM | FC(F)(F)c1ccc2c(c1)nc(N1CCNCC1)c1nocc12 [Example 221, 4-(piperazin-1-yl)-7-(trifluoromethyl)isoxazolo[3,4-c]quinoline] |
| < 10 µM | Clc1ccc2c(c1)nc(N1CCNCC1)c1nocc12 [Example 225, 7-chloro-4-(piperazin-1-yl)isoxazolo[3,4-c]quinoline] |
| < 10 µM | Fc1cc2nc(N3CCNCC3)c3nocc3c2cc1F [Example 227, 7,8-difluoro-4-(piperazin-1-yl)isoxazolo[3,4-c]quinoline] |
| < 10 µM | CN1CCN(c2nc3cc(Br)ccc3c3conc23)CC1 [Example 228, 7-bromo-4-(4-methylpiperazin-1-yl)isoxazolo[3,4-c]quinoline] |
| > 10 µM | Brc1ccc2c(c1)nc(N1CCNCC1)c1nocc12 [Example 229, 7-bromo-4-(piperazin-1-yl)isoxazolo[3,4-c]quinoline] |
| < 10 µM | FC(F)(F)c1ccc2nc(N3CCNCC3)c3[nH]ncc3c2c1 [Example 231, 4-(piperazin-1-yl)-8-(trifluoromethyl)-3H-pyrazolo[3,4-c]quinoline] |
| < 10 µM | CN1CCN(c2nc3ccc(Br)cc3c3c[nH]nc23)CC1 [Example 232, 8-bromo-4-(4-methylpiperazin-1-yl)-2H-pyrazolo[3,4-c]quinoline] |
| < 10 µM | Brc1ccc2nc(N3CCNCC3)c3n[nH]cc3c2c1 [Example 233, 8-bromo-4-(piperazin-1-yl)-2H-pyrazolo[3,4-c]quinoline] |
| < 10 µM | CN1CCN(c2nc3ccc(Br)cc3c3cn(C)nc23)CC1 [Example 234, 8-bromo-2-methyl-4-(4-methylpiperazin-1-yl)-2H-pyrazolo[3,4-c]quinoline] |
| < 10 µM | Cn1cc2c(n1)c(N1CCNCC1)nc1ccc(Br)cc12 [Example 235, 8-bromo-2-methyl-4-(piperazin-1-yl)-2H-pyrazolo[3,4-c]quinoline] |
| < 10 µM | Cc1nc2c(N3CCNCC3)nc3ccc(Br)cc3n2n1 [Example 242, 8-bromo-2-methyl-4-(piperazin-1-yl)-[1,2,4]triazolo[1,5-a]quinoxaline] |

— patent US20120065187A1 (ALCON RESEARCH, LTD, priority 2008, published 2012)
